Values of other authors, collected in patent publication US20240000730A1, “ANTIHISTAMINE SEMI-SOLID CHEWABLE GEL COMPOSITIONS AND METHODS OF MAKING AND USING THEREOF” (Seattle Gummy Company, priority 2021, published 2024).

Tests used:
[1] = ITC measurements
[2] = ITC measurements; remark: listed apart in the source
[3] = ITC measurements; remark: listed apart in the source

association constant of the cetirizine-γ-cyclodextrin complex [1]: 1200±50 (−1) | association constant K(a) of the cetirizine-α-cyclodextrin complex [2]: 1434 ± 60 M⁻¹ | association constant K(a) of the cetirizine-β-cyclodextrin complex [3]: 5641 ± 358 M⁻¹
SMILES: O=C(O)COCCN1CCN(C(c2ccccc2)c2ccc(Cl)cc2)CC1 (stereo not drawn) [Cetirizine, cetirizine]
